In patent US10597388B2, “Pyridazinone herbicides” (FMC CORPORATION, priority 2014, dated 2020):

Columns and labels:
Test in all cases: Test D controlled growth environment herbicide test, pre- and postemergence
Assay type in all cases: in vivo
[1] = tested on: pigweed (Amaranthus retroflexus)
How it was run: (§1)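 Species sown in silt loam and sprayed preemergence, or grown in peat-based medium to 2–18 cm (1- to 4-leaf stage) and sprayed postemergence, with compounds in non-phytotoxic solvent plus surfactant. Visual injury scored versus controls after 14–21 d in a controlled environment, 0 (no effect) to 100 (complete control).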

[2] = tested on: canarygrass (Phalaris minor)
How it was run: as §1

[3] = tested on: bluegrass (annual bluegrass, Poa annua)
How it was run: as §1

[4] = tested on: field violet (Viola arvensis)
How it was run: as §1

[5] = tested on: radish, wild (wild radish, Raphanus raphanistrum)
How it was run: as §1

[6] = tested on: galium (catchweed bedstraw, Galium aparine)
How it was run: as §1

[7] = tested on: speedwell (bird's-eye speedwell, Veronica persica)
How it was run: as §1

[8] = tested on: Russian thistle (Salsola kali)
How it was run: as §1

[9] = tested on: kochia (Kochia scoparia)
How it was run: as §1

[10] = tested on: buckwheat, wild (wild buckwheat, Polygonum convolvulus)
How it was run: as §1

[11] = tested on: mustard, wild (wild mustard, Sinapis arvensis)
How it was run: as §1

[12] = tested on: windgrass (Apera spica-venti)
How it was run: as §1

[13] = tested on: oilseed rape (Brassica napus)
How it was run: as §1

[14] = Postemergence, 31 g ai/ha, scale 0 to 100 (0 no effect, 100 complete control)
[15] = Postemergence, 125 g ai/ha, visual rating on scale 0 (no effect) to 100 (complete control), 14 to 21 d
[16] = Postemergence, 250 g ai/ha, scale 0 to 100 (0 no effect, 100 complete control)
[17] = Preemergence, 62 g ai/ha, scale 0 to 100 (0 no effect, 100 complete control)
[18] = Preemergence, 125 g ai/ha, scale 0 to 100 (0 no effect, 100 complete control)
[19] = Preemergence, 250 g ai/ha, scale 0 to 100 (0 no effect, 100 complete control)
[20] = postemergence, 62 g ai/ha, scale 0 to 100, 0 no effect, 100 complete control

Cc1cc(C)c2sc(C)c(-c3c(OC(=O)OC(C)C)c(C)nn(C)c3=O)c2c1 [Compound 67]
Pigweed plant response rating [1, 14]: 75 | Plant response rating, Pigweed [1, 15]: 85 | Plant response rating, Pigweed [1, 16]: 100 | Plant response rating (scale of 0 to 100), Pigweed ([1]; Preemergence, 31 g ai/ha): 35 | Plant response rating, Pigweed [1, 17]: 95 | Plant response rating, Pigweed [1, 18]: 100 | Plant response rating, Pigweed [1, 19]: 100 | Plant response rating, Pigweed [1, 20]: 80 | Canarygrass plant response rating [2, 14]: 75 | Plant response rating, Canarygrass [2, 15]: 85 | Plant response rating, Canarygrass [2, 16]: 95 | Plant response rating (scale of 0 to 100), Canarygrass ([2]; Preemergence, 31 g ai/ha): 40 | Plant response rating, Canarygrass [2, 17]: 85 | Plant response rating, Canarygrass [2, 18]: 90 | Plant response rating, Canarygrass [2, 19]: 95 | Plant response rating, Canarygrass [2, 20]: 85 | Bluegrass plant response rating [3, 14]: 5 | Plant response rating, Bluegrass [3, 15]: 20 | Plant response rating, Bluegrass [3, 16]: 30 | Plant response rating (scale of 0 to 100), Bluegrass ([3]; Preemergence, 31 g ai/ha): 0 | Plant response rating, Bluegrass [3, 17]: 0 | Plant response rating, Bluegrass [3, 18]: 20 | Plant response rating, Bluegrass [3, 19]: 50 | Plant response rating, Bluegrass [3, 20]: 15 | Field Violet plant response rating [4, 14]: 80 | Plant response rating, Field Violet [4, 15]: 90 | Plant response rating, Field Violet [4, 16]: 95 | Plant response rating (scale of 0 to 100), Field Violet ([4]; Preemergence, 31 g ai/ha): 85 | Plant response rating, Field Violet [4, 17]: 98 | Plant response rating, Field Violet [4, 18]: 100 | Plant response rating, Field Violet [4, 19]: 100 | Plant response rating, Field Violet [4, 20]: 80 | Radish, Wild plant response rating [5, 14]: 55 | Plant response rating, Radish, Wild [5, 15]: 70 | Plant response rating, Radish, Wild [5, 16]: 95 | Plant response rating (scale of 0 to 100), Radish, Wild ([5]; Preemergence, 31 g ai/ha): 25 | Plant response rating, Radish, Wild [5, 17]: 60 | Plant response rating, Radish, Wild [5, 18]: 75 | Plant response rating, Radish, Wild [5, 19]: 95 | Plant response rating, Radish, Wild [5, 20]: 65 | Galium plant response rating [6, 14]: 90 | Plant response rating, Galium [6, 15]: 100 | Plant response rating, Galium [6, 16]: 100 | Plant response rating (scale of 0 to 100), Galium ([6]; Preemergence, 31 g ai/ha): 0 | Plant response rating, Galium [6, 17]: 10 | Plant response rating, Galium [6, 18]: 35 | Plant response rating, Galium [6, 19]: 70 | Plant response rating, Galium [6, 20]: 100 | Speedwell plant response rating [7, 14]: 70 | Plant response rating, Speedwell [7, 15]: 75 | Plant response rating, Speedwell [7, 16]: 100 | Plant response rating (scale of 0 to 100), Speedwell ([7]; Preemergence, 31 g ai/ha): 80 | Plant response rating, Speedwell [7, 17]: 75 | Plant response rating, Speedwell [7, 18]: 100 | Plant response rating, Speedwell [7, 19]: 100 | Plant response rating, Speedwell [7, 20]: 75 | Russian Thistle plant response rating [8, 14]: 55 | Plant response rating, Russian Thistle [8, 15]: 75 | Plant response rating, Russian Thistle [8, 16]: 85 | Plant response rating (scale of 0 to 100), Russian Thistle ([8]; Preemergence, 31 g ai/ha): 0 | Plant response rating, Russian Thistle [8, 17]: 0 | Plant response rating, Russian Thistle [8, 18]: 0 | Plant response rating, Russian Thistle [8, 19]: 25 | Plant response rating, Russian Thistle [8, 20]: 60 | Kochia plant response rating [9, 14]: 10 | Plant response rating, Kochia [9, 15]: 40 | Plant response rating, Kochia [9, 16]: 50 | Plant response rating (scale of 0 to 100), Kochia ([9]; Preemergence, 31 g ai/ha): 0 | Plant response rating, Kochia [9, 17]: 0 | Plant response rating, Kochia [9, 18]: 0 | Plant response rating, Kochia [9, 19]: 0 | Plant response rating, Kochia [9, 20]: 35 | Buckwheat, Wild plant response rating [10, 14]: 100 | Plant response rating, Buckwheat, Wild [10, 15]: 100 | Plant response rating, Buckwheat, Wild [10, 16]: 100 | Plant response rating (scale of 0 to 100), Buckwheat, Wild ([10]; Preemergence, 31 g ai/ha): 0 | Plant response rating, Buckwheat, Wild [10, 17]: 0 | Plant response rating, Buckwheat, Wild [10, 18]: 0 | Plant response rating, Buckwheat, Wild [10, 19]: 0 | Plant response rating, Buckwheat, Wild [10, 20]: 100 | Mustard, Wild plant response rating [11, 14]: 25 | Plant response rating, Mustard, Wild [11, 15]: 40 | Plant response rating, Mustard, Wild [11, 16]: 65 | Plant response rating (scale of 0 to 100), Mustard, Wild ([11]; Preemergence, 31 g ai/ha): 0 | Plant response rating, Mustard, Wild [11, 17]: 0 | Plant response rating, Mustard, Wild [11, 18]: 0 | Plant response rating, Mustard, Wild [11, 19]: 0 | Plant response rating, Mustard, Wild [11, 20]: 35 | Windgrass plant response rating [12, 14]: 85 | Plant response rating, Windgrass [12, 15]: 90 | Plant response rating, Windgrass [12, 16]: 90 | Plant response rating (scale of 0 to 100), Windgrass ([12]; Preemergence, 31 g ai/ha): 30 | Plant response rating, Windgrass [12, 17]: 75 | Plant response rating, Windgrass [12, 18]: 80 | Plant response rating, Windgrass [12, 19]: 95 | Plant response rating, Windgrass [12, 20]: 85 | Oilseed Rape plant response rating [13, 14]: 70 | Plant response rating, Oilseed Rape [13, 15]: 85 | Plant response rating, Oilseed Rape [13, 16]: 90 | Plant response rating (scale of 0 to 100), Oilseed Rape ([13]; Preemergence, 31 g ai/ha): 10 | Plant response rating, Oilseed Rape [13, 17]: 20 | Plant response rating, Oilseed Rape [13, 18]: 25 | Plant response rating, Oilseed Rape [13, 19]: 25 | Plant response rating, Oilseed Rape [13, 20]: 80
